From patent US8392127B2, “Methods and gene expression signature for assessing growth factor signaling pathway regulation status” (Merck Sharp & Dohme Corp., priority 2008, dated 2013)
Entries after “also recorded” stand apart in the source; their conditions may differ.

Experiments:
[1] = tested on: COLO205; experiment: Sensitivity of colon cancer cell lines to AKT1/2 inhibitor (cell killing); assay type: cell-based, human; conditions: in vitro, grouping is relative
Description: (§1) FIG. 2. Cell lines used as a starting point for signature gene discovery. Nineteen colon cancer cell lines were phenotyped for sensitivity to the AKT1/2 inhibitor L-001154547.
(§2) In order to identify a gene expression signature of growth factor signaling pathway deregulation in human tumors, six colon carcinoma cell lines HCT-8 (ATCC #CCL-244), LoVo (ATCC #CCL-229), COLO205 (ATCC #CLL-222), DLD-1 (ATCC #CCL-221), HCT-116 (ATCC #CCL-247), and HCT-15 (ATCC #CCL-225) were initially expression profiled by microarray to identify genes that are responsive to AKT1/2 small molecule inhibition. The six colon cancer cell lines were treated with either 4 μM AKT1/2 inhibitor L-001154547 ('547; 3-phenyl-2-(4-{[4-(5-pyridin-2-yl-1H-1,2,4-triazol-3-yl)piperidin-1-yl]methyl}phenyl)-1,6-naphthyridin-5(6H)-one; disclosed in WO2006065601) or 4 μM AKT1/2 inhibitor L-01173931 ('931; 6-Methyl-3-phenyl-2-(4-{[4-(5-pyridin-2-yl-1H-1,2,4-triazol-3-yl)piperidin-1-yl]-methyl}phenyl)-1,6-naphthyridin-5(6H)-one; disclosed in WO2006065601) for 6 or 24 hours. Two AKT1/2 inhibitors were used for the profiling experiments as a way to offset any off-target effects of any one compound.
(§3) Discriminant analysis of responders and non-responders using post-dose changes of gene expression was 90% accurate in leave-one-out cross-validation (data not shown). Among these 1,600 genes, we focused on 399 genes that were tightly correlated (r>0.7) with changes in expression of IRS2 across this dataset, a key mediator of growth pathway signaling (FIG. 3B) (Hennessy et al., 2005, Nat. Rev. Drug Discov. 4:988-1004). Note that the sensitivity and resistance phenotypes shown in FIG. 1 are relative, not absolute.

[2] = tested on: DLD-1; experiment: as above; assay type: cell-based, human; conditions: in vitro, grouping is relative
Description: as §1, §2, §3

[3] = tested on: HCT-116; experiment: as above; assay type: cell-based, human; conditions: in vitro, grouping is relative
Description: as §1, §2, §3

[4] = tested on: HCT-15; experiment: as above; assay type: cell-based, human; conditions: in vitro, grouping is relative
Description: as §1, §2, §3

[5] = tested on: HCT-8; experiment: as above; assay type: cell-based, human; conditions: in vitro, grouping is relative
Description: as §1, §2, §3

[6] = tested on: LoVo; experiment: as above; assay type: cell-based, human; conditions: in vitro, grouping is relative
Description: as §1, §2, §3

[7] = tested on: growth factor signature; experiment: Signature inhibition in the connectivity map dataset; assay type: cell-based; conditions: for Enrichment / Rank in terms of significance of signature inhibition: Growth Factor Signaling Pathway signature, connectivity map dataset; for Rank in terms of significance of signature inhibition: rank among all compounds; for rank in terms of significance of growth factor signature inhibition: among all compounds in the connectivity map dataset
Description: (§4) To further validate the growth factor signature, we leveraged signatures of drug response from the connectivity map dataset (Lamb et al., 2006, Science 313:1929-1935). This dataset comprises mRNA expression data for 164 distinct small molecules, representing 453 individual compound treatment experiments. These small molecule inhibitors include the PI3K inhibitors wortmannin and LY-294002 and the mTOR inhibitor sirolimus. We surmised that if the growth factor signature truly represents activation of the PI3K pathway, these compounds should have an inhibitory effect on the signature. […] In contrast, other perturbagens in the connectivity map dataset either have no effect, a less significant inhibitory effect, or an activating effect on the growth factor signaling signature. […] For example, while LY-294002 was the top ranked compound in terms of significance of proliferation signature inhibition, sirolimus was ranked fifth, and wortmannin was ranked 23rd (Table 12).

[8] = tested on: proliferation signature; experiment: as above; assay type: cell-based; conditions: for Enrichment / Rank in terms of significance of signature inhibition: Proliferation signature, connectivity map dataset; for Rank in terms of significance of signature inhibition: rank among all compounds
Description: as §4

[9] = tested on: MYC signature; experiment: as above; assay type: cell-based; conditions: c-MYC signature; for Rank in terms of significance of signature inhibition: rank among all compounds
[10] = tested on: MYC signature; experiment: MYC signature (Bild et al.) in response to inhibition of oncology targets; assay type: cell-based; conditions: cancer cell lines of FIG. 6C
Description: FIG. 6. Relationship of AKT and MYC signatures. The AKT and MYC signature scores are highly correlated in the (A) colon (r=0.81) and (B) breast (r=0.82) tumor atlas datasets. The AKT signature score was calculated as described previously. […] (C) The Bild et al. MYC signature is inhibited by small molecule inhibitors of AKT, cMET and FGFR2, but not by taxol or inhibition of KSP. […] Experiments are listed on the left side of the heatmap (HCT116: colon cancer cells, LoVo: colon cancer cells, GTL-16: gastric cancer cells, EBC-1: lung cancer cells, KATO III: gastric cancer cells, SUM52: breast cancer cells). The drug (taxol) or drug target (all others) profiled in each experiment is indicated along the right side of the heatmap.
Bild et al. published a gene expression signature that was regulated in response to cMYC (also known as MYC) overexpression in primary human mammary epithelial cells (2006, Nature, 439:353-357). This MYC signature was analyzed in the context of tumor expression atlas data. The tumor expression atlas is a collection of gene expression data measured in several different types of human tumors, including breast, colon, gastric, kidney, and lung tumors. […] Therefore, we assessed the regulation of the MYC signature in response to inhibition of AKT and other oncology targets. […]

[11] = tested on: EGFR; experiment: mRNA expression of growth factor receptors after growth factor treatment (microarray); assay type: cell-based, human; conditions: MCF7 and HT29 cells; 100 ng/ml (heregulin 30 ng/ml)
Description: (§5) FIG. 29. Negative feedback induced by growth factors. The data presented represents the effect of each growth factor on the mRNA expression of (A) EGFR, (B) ERBB3, (C) INSR, or (D) a recently published signature of aberrant PTEN activity. The Y-axes represent the log(10) ratio of expression relative to vehicle. […] The X-axes represent the time point after growth factor addition.
(§6) MCF-7 and HT-29 cell lines were seeded in 6-well plates to achieve 40-50% confluence at the time of growth factor addition. Cells were serum starved for 24 hours in 0.2% charcoal stripped serum, and growth factors were added at 100 ng/ml (EGF, IGF, insulin, b-FGF) or 30 ng/ml (heregulin). Concentrations of growth factors were chosen to give maximal activation of growth factor receptors as judged by receptor auto-phosphorylation. Activation of growth factor receptor pathways after growth factor addition was confirmed by Western analysis of phosphorylated MAPK and phosphorylated AKT in a separate plate of cells (data not shown). Cells were harvested at 30 minutes, 2 hours, 6 hours, 18 hours, and 24 hours after growth factor addition. DMSO (vehicle) treated cells were also harvested at each time point. RNA was prepared using RLT lysis reagent Qiagen spin columns according to manufacturer instructions.
(§7) For growth factor and AKT inhibitor treated cells, total RNA was isolated from cell lines and converted to fluorescently labeled cRNA that was hybridized to DNA oligonucleotide microarrays as described previously (Hughes et al., 2001, Nat. Biotechnol. 19:342-347; Marton et al., 1998, Nat. Med. 4:1293-1301). Briefly, 4 μg of total RNA from each treated sample was used to synthesize dsDNA through reverse transcription. cRNA was produced by in vitro transcription and labeled post-synthetically with Cy3 or Cy5. cRNA derived from growth factor or AKT inhibitor treated cells (experimental sample) was hybridized against cRNA derived from vehicle treated samples (reference sample). Two hybridizations were done with each cRNA sample pair using fluorescent dye reversal strategy. For growth factor treated cells, microarrays contained 23,880 probes representing genes or expressed sequence tags (GEO platform GPL2029). For AKT inhibitor treated cells, microarrays contained 23,658 probes representing genes or expressed sequence tags (GEO platform GPL3991). Probe sequences were chosen to maximize gene specificity and minimize the 3′-replication bias inherent in reverse transcription of mRNA. In addition, all microarrays contained approximately 2,000 control probes for quality control purposes. All probes on the microarrays were synthesized in situ with inkjet technology (Agilent Technologies, Palo Alto, Calif.; Hughes et al, 2001, Nat. Biotechnol. 19:342-347). After hybridization, arrays were scanned and fluorescence intensities for each probe were recorded. Ratios of transcript abundance (experimental to control) were obtained following normalization and correction of the array intensity data. Gene expression data was analyzed using Rosetta Resolver gene expression analysis software (version 7.0, Rosetta Biosoftware, Seattle, Wash.) and MATLAB (The MathWorks, Natick, Mass.).
(§8) As such, care should be taken when using mRNA levels of ERBB3 or INSR as a surrogate for activity of signaling through these receptors.

[12] = tested on: ERBB3; experiment: as above; assay type: cell-based, human; conditions: MCF7 and HT29 cells; 100 ng/ml (heregulin 30 ng/ml)
Description: as §5, §6, §7, §8

[13] = tested on: INSR; experiment: as above; assay type: cell-based, human; conditions: MCF7 and HT29 cells; 100 ng/ml (heregulin 30 ng/ml)
Description: as §5, §6, §7, §8

[14] = tested on: growth factor signaling pathway signature; experiment: Regulation of the growth factor signaling pathway signature by growth factors and inhibitors; assay type: cell-based; conditions: HT29 and MCF7 cells; 0.5, 2, 6, 18, or 24 hours
Description: FIG. 9. Inverse regulation of the growth factor signaling pathway signature by growth factors relative to growth factor pathway inhibitors. Genes listed in Table 5 are shown along the Y-axis, and various treatments are listed along the X-axis. The drug treatment/drug targets are listed along the left hand side, and functional groupings are listed along the right hand side. […] From the growth factor compendium, we show data from both colon (HT29) and breast (MCF7) cells treated with heregulin (a growth factor that binds to Erbb family receptors and activates PI3K/AKT signaling). Cells were treated with heregulin for 0.5, 2, 6, 18, or 24 hours.
Because we developed this novel growth factor signaling pathway signature based on regulation by inhibitors of growth factor pathway signaling, we hypothesized that our signature genes would be inversely regulated in vitro by treatments that activate growth factor signaling.

Compound	Enrichment [7]	Rank in terms of significance of signature inhibition [7]	rank in terms of significance of growth factor signature inhibition [7]	Enrichment [8]	Rank in terms of significance of signature inhibition [8]	Enrichment [9]	Rank in terms of significance of signature inhibition [9]	ERBB3 mRNA expression [12]	INSR mRNA expression [13]	further results
O=c1[nH]ccc2nc(-c3ccc(CN4CCC(c5n[nH]c(-c6ccccn6)n5)CC4)cc3)c(-c3ccccc3)cc12 [L-001154547, 3-phenyl-2-(4-{[4-(5-pyridin-2-yl-1H-1,2,4-triazol-3-yl)piperidin-1-yl]methyl}phenyl)-1,6-naphthyridin-5(6H)-one]	–	–	–	–	–	–	–	–	–	sensitivity to AKT inhibition [1]: more sensitive; also recorded: relatively sensitive; sensitivity to AKT inhibition [2]: more resistance; also recorded: relatively resistant; sensitivity to AKT inhibition [3]: more resistance; also recorded: relatively resistant; sensitivity to AKT inhibition [4]: more resistance; also recorded: relatively resistant; sensitivity to AKT inhibition [5]: more sensitive; also recorded: relatively sensitive; sensitivity to AKT inhibition [6]: more sensitive; also recorded: relatively sensitive
O=c1cc(N2CCOCC2)oc2c(-c3ccccc3)cccc12 [LY-294002]	−0.748	3	3	−0.527	1	−0.602	2	–	–	–
CO[C@H]1C[C@@H]2CC[C@@H](C)[C@@](O)(O2)C(=O)C(=O)N2CCCC[C@H]2C(=O)O[C@H]([C@H](C)C[C@@H]2CC[C@@H](O)[C@H](OC)C2)CC(=O)[C@H](C)/C=C(\C)[C@@H](O)[C@@H](OC)C(=O)[C@H](C)C[C@H](C)/C=C/C=C/C=C/1C [sirolimus]	−0.865	1	1	−0.482	5	−0.68	1	–	–	–
CC(=O)O[C@H]1C(=O)[C@@]2(C)[C@H]([C@H](OC(=O)c3ccccc3)[C@]3(O)C[C@H](OC(=O)[C@H](O)[C@@H](NC(=O)c4ccccc4)c4ccccc4)C(C)=C1C3(C)C)[C@]1(OC(C)=O)CO[C@@H]1C[C@@H]2O [taxol]	–	–	–	–	–	–	–	–	–	inhibition of the MYC signature developed by Bild et al. [10]: not inhibited
COC[C@H]1OC(=O)c2coc3c2[C@@]1(C)C1=C(C3=O)[C@@H]2CCC(=O)[C@@]2(C)C[C@H]1OC(C)=O [wortmannin]	−0.776	2	2	−0.387	23	−0.561	7	–	–	rank in terms of significance of proliferation signature inhibition ([8]; among all compounds in the connectivity map dataset): 23
EGF: growth factor added to cells at 100 ng/ml	–	–	–	–	–	–	–	significant down-regulation	significant down-regulation	EGFR mRNA expression [11]: did not result in down-regulation
IGF: growth factor added to cells at 100 ng/ml	–	–	–	–	–	–	–	significant down-regulation	significant down-regulation	–
b-FGF: growth factor added to cells at 100 ng/ml	–	–	–	–	–	–	–	significant down-regulation	significant down-regulation	–
heregulin	–	–	–	–	–	–	–	significant down-regulation	significant down-regulation	regulation of the growth factor signaling pathway signature genes [14]: inverse regulation of the signature genes
insulin: growth factor added to cells at 100 ng/ml	–	–	–	–	–	–	–	significant down-regulation	significant down-regulation	–
